According to PubChem BioAssay AID2060483 (Molecular Pharmacology Branch, DTP, NCI, 2025):
“And” between values parts separate entries of the source, which are not always exact repeats. Identical values can stand only once. One block for each compound: values may come before it.

Tested on: K24384-001-R-PDC complex spheroids, viability
Assay: Anticancer human tumor K24384-001-R-PDC patient-derived pancreatic adenocarcinoma cell line growth inhibition [GQUAD]
Conditions: for viability, T/C: stronger effect = lower value
From the text: DNA G-quadruplex Stabilizer Agents in Combinations in Complex Spheroids
A high-throughput screen of multi-cell type tumor spheroids was designed to identify active combinations of DNA G-quadruplex stabilizer agents and targeted small molecules. Complex spheroids include a stromal component modeled by human endothelial cells (HUVEC) and fibroblasts modeled by human mesenchymal stem cells (MSCs). The concentration ranges selected for each drug and investigational agent were based upon clinically achievable concentrations if the clinical Cmax of the agent was known.
Compounds. The drugs and investigational agents: pidnarulex (CX-5461; NSC782164), APTO-253 (NSC789042), BRACO-19 (NSC847499), peposertib (NSC802822), ceralasertib (NSC780249), elimusertib (NSC800525), camonsertib (NSC841442), AZD-1390 (NSC803789), olaparib (NSC753686), talazoparib (NSC767125), ART-558 (NSC835418), sotorasib (NSC818433), MRTX-1133 (NSC836407), SN-38 (NSC673596), topotecan (NSC609699), etoposide (NSC141540), doxorubicin (NSC123127), gemcitabine (NSC613327), 5-fluorouracil (NSC19893), paclitaxel (NSC125973), vemurafenib (NSC761431), panobinostat (NSC761190), R-306465 (JNJ-16241199; NSC773264), adavosertib (NSC754352), TP-3654 (NSC805149), carboplatin (NSC241240), KSQ-4279 (NSC840948), and staurosporine (NSC755774) were obtained from the National Cancer Institute (NCI) Developmental Therapeutics Program Chemical Repository (34). The FDA-approved anticancer drug set is available from the NCI Developmental Therapeutics Program. […] The stock solutions were prepared in dimethyl sulfoxide (DMSO, Sigma-Aldrich, St. Louis, MO, cat. D2650) at 800-fold the tested concentration and stored at -70 degrees C prior to their use. All drugs and investigational agents were tested over a range starting from a high concentration at or near the clinical Cmax and decreasing in half-log increments. If the clinical Cmax for an agent had not been determined, the highest concentration tested was 10 microM.
2.3 Cell Culture. All cells were maintained in an incubator at 37 degrees C and 5% CO2 with 95% humidity. The PDC lines were cultured according to standard operating procedures established by the NCI PDMR. All PDCs were thawed and cultured in Matrigel-coated flasks prepared with a working solution of 1X Ham's F-12 nutrient mix, without supplementation (Invitrogen, cat. 11765054), 100 U/mL penicillin-streptomycin (Invitrogen, cat. 15140122), and 2.5% Matrigel (Corning Inc., cat. 354248) for the first three passages. The 857933-349-R-J2-PDC line was cultured in 6C/Colon 1B media, which includes advanced DMEM/F-12 (Thermo Fisher Scientific, cat. 12634028), 10 mM HEPES (Thermo Fisher Scientific, cat. 15630080), 1X GlutaMAX supplement (Thermo Fisher Scientific, cat. 35050061), 0.1 mg/mL primocin (InvivoGen, cat. ant-pm-2), 10% defined fetal bovine serum, heat inactivated (HyClone Laboratories Inc., cat. SH30070.03HI), 50% L-WRN conditioned media (ATCC, cat. CRL-3276), 1.25 mM N-Acetyl-L-cysteine (Sigma-Aldrich, cat. A9165), 10 mM nicotinamide (Sigma-Aldrich, cat. N0636), 1X B-27 supplement (Thermo Fisher Scientific, cat. 17504044), 1X N-2 supplement (Thermo Fisher Scientific, cat. 17502048), 10 microM Y-27632 dihydrochloride (Tocris Bioscience, cat. 1254), and 50 ng/mL human EGF recombinant protein (Thermo Fisher Scientific, cat. PHG0311). The 485176-168-R4-J1-PDC line was cultured in Panc media, which includes all 6C/Colon 1B media components plus 100 ng/mL human FGF-10 (Thermo Fisher Scientific, cat. 100-26), 500 nM SB-431542 (Selleckchem, cat. S1067), and gastrin (Tocris, cat. 3006).
[…]

[1] = curve of first compound, second compound 0.0316 µM
[2] = curve of first compound, second compound 0.1 µM
[3] = curve of first compound, second compound 0.316 µM
[4] = curve of first compound, second compound 1 µM
[5] = curve of first compound, second compound 3.16 µM
[6] = curve of first compound, second compound 10 µM
[7] = second compound 0.0316 µM, first compound 0.0316 µM
[8] = second compound 0.0316 µM, first compound 0.1 µM
[9] = second compound 0.0316 µM, first compound 0.316 µM
[10] = second compound 0.0316 µM, first compound 1 µM
[11] = second compound 0.0316 µM, first compound 3.16 µM
[12] = second compound 0.0316 µM, first compound 10 µM
[13] = second compound 0.1 µM, first compound 0.0316 µM
[14] = second compound 0.1 µM, first compound 0.1 µM
[15] = second compound 0.1 µM, first compound 0.316 µM
[16] = second compound 0.1 µM, first compound 1 µM
[17] = second compound 0.1 µM, first compound 3.16 µM
[18] = second compound 0.1 µM, first compound 10 µM
[19] = second compound 0.316 µM, first compound 0.0316 µM
[20] = second compound 0.316 µM, first compound 0.1 µM
[21] = second compound 0.316 µM, first compound 0.316 µM
[22] = second compound 0.316 µM, first compound 1 µM
[23] = second compound 0.316 µM, first compound 3.16 µM
[24] = second compound 0.316 µM, first compound 10 µM
[25] = second compound 1 µM, first compound 0.0316 µM
[26] = second compound 1 µM, first compound 0.1 µM
[27] = second compound 1 µM, first compound 0.316 µM
[28] = second compound 1 µM, first compound 1 µM
[29] = second compound 1 µM, first compound 3.16 µM
[30] = second compound 1 µM, first compound 10 µM
[31] = second compound 3.16 µM, first compound 0.0316 µM
[32] = second compound 3.16 µM, first compound 0.1 µM
[33] = second compound 3.16 µM, first compound 0.316 µM
[34] = second compound 3.16 µM, first compound 1 µM
[35] = second compound 3.16 µM, first compound 3.16 µM
[36] = second compound 3.16 µM, first compound 10 µM
[37] = second compound 10 µM, first compound 0.0316 µM
[38] = second compound 10 µM, first compound 0.1 µM
[39] = second compound 10 µM, first compound 0.316 µM
[40] = second compound 10 µM, first compound 1 µM
[41] = second compound 10 µM, first compound 3.16 µM
[42] = second compound 10 µM, first compound 10 µM
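Further: spheroids exposed to compounds for seven days.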

SMILES: COc1cccc2c1C(=O)c1c(O)c3c(c(O)c1C2=O)CC(O)(C(=O)CO)CC3OC1CC(N)C(O)C(C)O1 (stereo unspecified) + CN(C)c1ccc(Nc2c3ccc(NC(=O)CCN4CCCC4)cc3nc3cc(NC(=O)CCN4CCCC4)ccc23)cc1
IC50 [1]: 215 nM | IC50 [2]: 183 nM | IC50 [3]: 120 nM | IC50 [4]: 148 nM | IC50 [5]: 169 nM | IC50 [6]: 244 nM | viability, T/C [7]: 94.6% | viability, T/C [8]: 57.3% | viability, T/C [9]: 54.4% | viability, T/C [10]: 18.4% | viability, T/C [11]: 4.88% | viability, T/C [12]: 3.9% | viability, T/C [13]: 92.5% | viability, T/C [14]: 63.3% | viability, T/C [15]: 38.2% | viability, T/C [16]: 19.1% | viability, T/C [17]: 5.65% | viability, T/C [18]: 3.5% | viability, T/C [19]: 79.4% | viability, T/C [20]: 51.2% | viability, T/C [21]: 35.3% | viability, T/C [22]: 20.8% | viability, T/C [23]: 6.33% | viability, T/C [24]: 4.16% | viability, T/C [25]: 90.7% | viability, T/C [26]: 53.8% | viability, T/C [27]: 39.3% | viability, T/C [28]: 20.4% | viability, T/C [29]: 5.66% | viability, T/C [30]: 4.15% | viability, T/C [31]: 83.2% | viability, T/C [32]: 56.4% | viability, T/C [33]: 39.2% | viability, T/C [34]: 29.3% | viability, T/C [35]: 5.72% | viability, T/C [36]: 5.1% | viability, T/C [37]: 80.9% | viability, T/C [38]: 101% | viability, T/C [39]: 38% | viability, T/C [40]: 35% | viability, T/C [41]: 9.76% | viability, T/C [42]: 2.73%

SMILES: Cc1cnc(CNC(=O)c2c(=O)c3ccc(N4CCCN(C)CC4)nc3n3c2sc2ccccc23)cn1
viability, T/C (compound 0.0316 µM): 82.8% [middle of 12 runs] | viability, T/C (compound 0.1 µM): 66.4% [middle of 12 runs] | viability, T/C (compound 0.316 µM): 50.4% [middle of 12 runs] | viability, T/C (compound 1 µM): 44.4% [middle of 12 runs] | viability, T/C (compound 3.16 µM): 34.6% [middle of 12 runs]

IC50 [1]: 877 nM | IC50 [2]: > 10000 nM | IC50 [3]: < 31.6 nM | IC50 [4]: < 31.6 nM | IC50 [5]: < 31.6 nM | IC50 [6]: < 31.6 nM
SMILES: O=c1[nH]cc(F)c(=O)[nH]1 + Cc1cnc(CNC(=O)c2c(=O)c3ccc(N4CCCN(C)CC4)nc3n3c2sc2ccccc23)cn1
viability, T/C [7]: 78.1% | viability, T/C [8]: 90.8% | viability, T/C [9]: 78.9% | viability, T/C [10]: 45.7% | viability, T/C [11]: 53.1% | viability, T/C [12]: 40% | viability, T/C [13]: 55.8% | viability, T/C [14]: 68.3% | viability, T/C [15]: 69.5% | viability, T/C [16]: 50.9% | viability, T/C [17]: 70.9% | viability, T/C [18]: 50.4% | viability, T/C [19]: 45.7% | viability, T/C [20]: 47.3% | viability, T/C [21]: 51.7% | viability, T/C [22]: 41.8% | viability, T/C [23]: 48.2% | viability, T/C [24]: 47% | viability, T/C [25]: 35.9% | viability, T/C [26]: 46.4% | viability, T/C [27]: 41.9% | viability, T/C [28]: 48.6% | viability, T/C [29]: 53.9% | viability, T/C [30]: 38.2% | viability, T/C [31]: 33.3% | viability, T/C [32]: 37% | viability, T/C [33]: 37.1% | viability, T/C [34]: 49.7% | viability, T/C [35]: 47.1% | viability, T/C [36]: 34% | viability, T/C [37]: 28.3% | viability, T/C [38]: 25.2% | viability, T/C [39]: 30.6% | viability, T/C [40]: 35.4% | viability, T/C [41]: 19.8% | viability, T/C [42]: 23.1%

IC50 (curve of compound): 290 nM and 271 nM and 466 nM
SMILES: C=CCn1c(=O)c2cnc(Nc3ccc(N4CCN(C)CC4)cc3)nc2n1-c1cccc(C(C)(C)O)n1
viability, T/C (compound 0.0316 µM): 95.1% and 91% and 82% | viability, T/C (compound 0.1 µM): 83.3% and 71% and 74.8% | viability, T/C (compound 0.316 µM): 47.9% and 50.8% and 64% | viability, T/C (compound 1 µM): 20.5% and 17.9% and 22.7% | viability, T/C (compound 3.16 µM): 13.4% and 12.8% and 16.7% | viability, T/C (compound 10 µM): 19.4% and 15.9% and 18.2%
